Source: patent US11001561B2, “Pyrimidinone derivatives as SHP2 antagonists” (MERCK PATENT GMBH, priority 2019, dated 2021)
Structures can show the parent of a compound that is named as a salt.

What follows are compounds tested against Full length SHP2 protein (Recombinant Human SHP-2) (Homo sapiens (Human), UniProt Q06124) (assay: SHP2 biochemical assay (DiFMUP substrate, activating peptide IRSI_2pY)). Conditions: SHP-2 biochemical assay IC50 (μM), activating peptide IRSI_2pY 140 nM, DiFMUP, 60 min.
Chain of Full length SHP2 protein (Recombinant Human SHP-2) (Q06124 2-593): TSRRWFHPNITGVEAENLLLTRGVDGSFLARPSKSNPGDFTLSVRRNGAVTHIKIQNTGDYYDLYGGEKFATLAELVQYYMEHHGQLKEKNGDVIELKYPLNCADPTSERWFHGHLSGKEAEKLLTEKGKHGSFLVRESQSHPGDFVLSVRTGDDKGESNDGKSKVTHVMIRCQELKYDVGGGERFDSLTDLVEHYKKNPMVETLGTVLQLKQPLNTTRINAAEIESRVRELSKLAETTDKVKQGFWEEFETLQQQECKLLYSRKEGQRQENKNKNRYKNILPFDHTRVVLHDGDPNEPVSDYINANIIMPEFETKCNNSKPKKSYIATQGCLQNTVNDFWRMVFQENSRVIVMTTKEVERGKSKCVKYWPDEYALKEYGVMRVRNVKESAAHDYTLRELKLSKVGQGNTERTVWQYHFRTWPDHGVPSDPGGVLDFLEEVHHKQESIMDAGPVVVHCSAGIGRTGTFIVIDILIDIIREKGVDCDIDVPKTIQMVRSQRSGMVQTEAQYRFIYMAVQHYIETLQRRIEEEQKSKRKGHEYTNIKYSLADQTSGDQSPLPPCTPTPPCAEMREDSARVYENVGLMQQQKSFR
Protocol: The inhibition of SHP2 by compounds of the invention was monitored using the surrogate substrate DiFMUP after protein activation by a peptide bearing two appropriately spaced phosphotyrosine. […] The generation of the DiFMU product by activated SHP2 was monitored through Fluorescence measurement with a PerkinElmer Envision reader. The inhibitor dose response curves were analyzed with Genedata Screener.

| Compound | IC50 [µM] |
| --- | --- |
| Cc1c(N2CCC3(CC2)Oc2ncccc2[C@H]3N)nc(C)n(-c2cccc(Cl)c2Cl)c1=O [Compound 79a, (3M)-6-[(3R)-3-amino-3H-spiro[furo[2,3-b]pyridine-2,4′-piperidin]-1′-yl]-3-(2,3-dichlorophenyl)-2,5-dimethylpyrimidin-4-one] | 0.3 |
| COc1c(N2CCC3(CC2)CO[C@@H](C)[C@H]3N)nc(C)n(-c2cccc(Cl)c2Cl)c1=O (single isomer, unassigned) [Compound 73b] | 0.91 |
| [2H]C([2H])([2H])c1c(N2CCC3(CC2)CO[C@@H](C)[C@H]3N)nc(C)n(-c2cccc(Cl)c2Cl)c1=O (single isomer, unassigned) [Compound 63a] | 6 |
| Cc1nc(N2CCC(C)(N3CC[C@H](O)C3)CC2)cc(=O)n1-c1cccc(Cl)c1Cl (single isomer, unassigned) [Compound 72a] | > 10 |
| Cc1c(N[C@H]2CC[C@@H](N)CC2)ncn(-c2cccc(Cl)c2Cl)c1=O [Compound 85, 6-(4-Amino-cyclohexylamino)-3-(2,3-dichloro-phenyl)-5-methyl-3H-pyrimidin-4-one] | > 10 |
| [2H]C([2H])([2H])c1c(N2CCC(C)(N)CC2)nc(C)n(-c2cccc(Cl)c2Cl)c1=O [Compound 94, 6-(4-amino-4-methylpiperidin-1-yl)-3-(2,3-dichlorophenyl)-5-(D3)methyl-2-methyl-3,4-dihydropyrimidin-4-one] | 1.4 |
| Cc1nc(C2=CC[C@@](C)(N)CC2)cc(=O)n1-c1cccc(Cl)c1Cl (racemic) [Compound 6b, (+/−)-(3P)-6-[(4S)-4-amino-4-methylcyclohex-1-en-1-yl]-3-(2,3-dichlorophenyl)-2-methyl-3,4-dihydropyrimidin-4-one] | > 10 |
| Cc1nc(N2CCC(C)([C@H](O)CN)CC2)cc(=O)n1-c1cccc(Cl)c1Cl (racemic) [Compound 57a, (+/−)-(3M)-6-{4-[(1S)-2-amino-1-hydroxyethyl]-4-methylpiperidin-1-yl}-3-(2,3-dichlorophenyl)-2-methyl-3,4-dihydropyrimidin-4-one] | > 10 |
| Cc1nc(N2CCC(C)([C@H](O)CN)CC2)cc(=O)n1-c1cccc(Cl)c1Cl (racemic) [Compound 57b, (+/−)-(3P)-6-{4-[(1S)-2-amino-1-hydroxyethyl]-4-methylpiperidin-1-yl}-3-(2,3-dichlorophenyl)-2-methyl-3,4-dihydropyrimidin-4-one] | 3 |
| Cc1c(N2CCC3(CC2)Oc2ccccc2[C@H]3N)nc(C)n(-c2cccc(Cl)c2Cl)c1=O (single isomer, unassigned) [Compound 81a] | 0.47 |

Same assay, conditions: activating peptide IRSI_2pY 140 nM, DiFMUP, 60 min; read-out: SHP-2 biochemical assay IC50

| Compound | IC50 [µM] |
| --- | --- |
| Cc1nc(N2CCCC(C)(N)CC2)cc(=O)n1-c1cccc(Cl)c1Cl (stereo not shown) [Compound 21, 6-(4-amino-4-methylazepan-1-yl)-3-(2,3-dichlorophenyl)-2-methyl-3,4-dihydropyrimidin-4-one hydrochloride] | 1.6 |
| Cc1c(N2CCC3(CC2)CO[C@@H](C)[C@H]3N)nc(C)n(-c2ccc3ccccc3c2)c1=O [Compound 45, 6-((3S,4S)-4-Amino-3-methyl-2-oxa-8-aza-spiro[4.5]dec-8-yl)-2,5-dimethyl-3-naphthalen-2-yl-3H-pyrimidin-4-one] | 1.2 |
| Cc1c(N2CCC3(CC2)CC3CN)nc(C)n(-c2cccc(Cl)c2Cl)c1=O (stereo not shown) [Compound 86, 6-[1-(aminomethyl)-6-azaspiro[2.5]octan-6-yl]-3-(2,3-dichlorophenyl)-2,5-dimethyl-3,4-dihydropyrimidin-4-one] | 4.6 |
| CC1(CN)CCN(c2cc(=O)n(-c3cccc(Cl)c3Cl)c(C(F)F)n2)CC1 [Compound 17, 6-[4-(aminomethyl)-4-methylpiperidin-1-yl]-3-(2,3-dichlorophenyl)-2-(difluoromethyl)-3,4-dihydropyrimidin-4-one] | 3 |
| Cc1nc(N2CC3CC4CC(C4(C)C)C3(CN)C2)cc(=O)n1-c1cccc(Cl)c1Cl (stereo not shown) [Compound 60, 6-[2-(aminomethyl)-9,9-dimethyl-4-azatricyclo[6.1.1.0^2,6]decan-4-yl]-3-(2,3-dichlorophenyl)-2-methyl-3,4-dihydropyrimidin-4-one] | 10 |
| Cc1c(N2CCC3(CCC[C@H]3N)CC2)nc(N)n(-c2cccc(Cl)c2Cl)c1=O (single isomer, unassigned) [Compound 78b] | > 10 |
| Cc1c(N2CCCC(CN)CC2)nc(C)n(-c2cccc(Cl)c2Cl)c1=O (stereo not shown) [Compound 91, 6-[4-(aminomethyl)azepan-1-yl]-3-(2,3-dichlorophenyl)-2,5-dimethyl-3,4-dihydropyrimidin-4-one] | 2 |
| Cc1c(N2CCC3(CC2)CO[C@@H](C)[C@H]3N)nc(C)n(-c2cccc(Cl)c2Cl)c1=O (single isomer, unassigned) [Compound 23a] | 3.4 |
| Cc1c(N2CCC3(CC2)CO[C@@H](C)[C@H]3N)nc(C)n(-c2ccc3ccccc3c2Cl)c1=O [Compound 52, 6-((3S,4S)-4-Amino-3-methyl-2-oxa-8-aza-spiro[4.5]dec-8-yl)-3-(1-chloro-naphthalen-2-yl)-2,5-dimethyl-3H-pyrimidin-4-one] | 0.59 |
| Cc1c(N2CCC(C)(CN)CC2)nc(C)n(-c2ccc3ccccc3c2)c1=O [Compound 44, 6-(4-Aminomethyl-4-rnethyl-piperidin-1-yl)-2,5-dimethyl-3-naphthalen-2-yl-3H-pyrimidin-4-one] | 18 |
| Cc1c(N2CCCC3(CCC3N)C2)nc(C)n(-c2cccc(Cl)c2Cl)c1=O (stereo not shown) [Compound 90, 6-1-amino-6-azaspiro[3.5]nonan-6-yl-3-(2,3-dichlorophenyl)-2,5-dimethyl-3,4-dihydropyrimidin-4-one] | 3.9 |
| Nc1nc(N2CCC3(CC2)CC(F)(F)C[C@H]3N)cc(=O)n1-c1cccc(Cl)c1Cl [Compound 8, 2-amino-6-[(1R)-1-amino-3,3-difluoro-8-azaspiro[4.5]decan-8-yl]-3-(2,3-dichlorophenyl)-3,4-dihydropyrimidin-4-one] | 1.1 |
| Cc1nc(N2CCC(C)(NCC3CCC(O)CC3)CC2)cc(=O)n1-c1cccc(Cl)c1Cl (stereo not shown) [Compound 50, 3-(2,3-dichlorophenyl)-6-(4-{[(4-hydroxycyclohexyl)methyl]amino}-4-methylpiperidin-1-yl)-2-methyl-3,4-dihydropyrimidin-4-one] | 0.56 |
| Cc1nc(C2=CCC(C)(CN)CC2)cc(=O)n1-c1cccc(Cl)c1Cl (stereo not shown) [Compound 9, 6-[4-(aminomethyl)-4-methylcyclohex-1-en-1-yl]-3-(2,3-dichlorophenyl)-2-methyl-3,4-dihydropyrimidin-4-one] | 16 |
| Cc1c(N2CC(CN)C(C)(C)C2)nc(C)n(-c2cccc(Cl)c2Cl)c1=O (stereo not shown) [Compound 87, 6-[4-(aminomethyl)-3,3-dimethylpyrrolidin-1-yl]-3-(2,3-dichlorophenyl)-2,5-dimeihyl-3,4-dihydropyrimidin-4-one] | 7.9 |
| Cc1nc(N2CCC(C)(CN)CC2)cc(=O)n1-c1c(F)ccc(Cl)c1Cl (single isomer, unassigned) [Compound 33a, (3P)-6-[4-(aminomethyl)-4-methylpiperidin-1-yl]-3-(2,3-dichloro-6-fluorophenyl)-2-methyl-3,4-dihydropyrimidin-4-one] | > 10 |
| Cc1c(N2CCC3(CC2)CO[C@@H](C)[C@H]3N)nc(C)n(-c2ccc3nccnc3c2)c1=O [Compound 53, 6-((3S,4S)-4-Amino-3-methyl-2-oxa-8-aza-spiro[4.5]dec-8-yl)-2,5-dimethyl-3-quinoxalin-6-yl-3H-pyrimidin-4-one] | 6.1 |
| Cc1c(N2CCc3cccc(N)c3C2)nc(C)n(-c2cccc(Cl)c2Cl)c1=O [Compound 51, 6-(8-amino-1,2,3,4-tetrahydroisoquinolin-2-yl)-3-(2,3-dichlorophenyl)-2,5-dimethyl-3,4-dihydropyrimidin-4-one] | > 10 |
| CNC1(C)CCN(c2cc(=O)n(-c3cccc(Cl)c3Cl)c(C)n2)CC1 [Compound 31, 3-(2,3-dichlorophenyl)-2-methyl-6-[4-methyl-4-(methylamino)piperidin-1-yl]-3,4-dihydropyrimidin-4-one] | 0.56 |
| Cc1nc(N2CC3CCC(C2)N3)cc(=O)n1-c1cccc(Cl)c1Cl [Compound 56, 6-3,8-diazabicyclo[3.2.1]octan-3-yl-3-(2,3-dichlorophenyl)-2-methyl-3,4-dihydropyrimidin-4-one] | 5.2 |
| Cc1nc(N2CCC(CO)(CCN)CC2)cc(=O)n1-c1cccc(Cl)c1Cl [Compound 16, 6-[4-(2-aminoethyl)-4-(hydroxymethyl)piperidin--yl]-3-(2,3-dichlorophenyl)-2-methyl-3,4-dihydropyrimidin-4-one] | 4.3 |
| Cc1nc(N2CCC(C)(N)CC2)c(C2CC2)c(=O)n1-c1cccc(Cl)c1Cl [Compound 93, 6-(4-Amino-4-methyl-piperidin-1-yl)-5-cyclopropyl-3-(2,3-dichloro-phenyl)-2-methyl-3H-pyrimidin-4-one] | 12 |
| Cc1nc(N2CCC(O)(CN)CC2)cc(=O)n1-c1cccc(Cl)c1Cl [Compound 28, 6-[4-(aminomethyl)-4-hydroxypiperidin-1-yl]-3-(2,3-dichlorophenyl)-2-methyl-3,4-dihydropyrimidin-4-one] | 3.5 |
| Cc1nc(N2C[C@H]3CC(O)C[C@@]3(CN)C2)cc(=O)n1-c1cccc(Cl)c1Cl (stereo partly drawn) [Compound 59, 6-[(3aR,6aS)-3a-(aminomethyl)-5-hydroxy-octahydrocyclopenta[c]pyrrol-2-yl]-3-(2,3-dichlorophenyl)-2-methyl-3,4-dihydropyrimidin-4-one] | 2.6 |
| Cc1c(N2CCC3(CC2)Oc2cnccc2[C@@H]3N)nc(C)n(-c2cccc(Cl)c2Cl)c1=O (single isomer, unassigned) [Compound 80d] | 1.4 |
| Cc1c(N2CCC(C)(N)CC2)nc(C)n(-c2ccc3ccccc3c2Cl)c1=O [Compound 48, 6-(4-Amino-4-methyl-piperidin-1-yl)-3-(1-chloro-naphthalen-2-yl)-2,5-dimethyl-3H-pyrimidin-4-one] | 18 |
| Cc1c(N2CCC(C)(CN)CC2)nc(C)n(-c2ccc3ccccc3c2Cl)c1=O [Compound 54, 6-(4-Aminomethyl-4-methyl-piperidin-1-yl)-3-(1-chloro-naphthalen-2-yl)-2,5-dimethyl-3H-pyrimidin-4-one] | 5.6 |
